The source of these data is patent publication US12291494B2, “Methods of treating fibrosis” (Nogra Pharma Limited, priority 2012, dated 2025).

“Also recorded” adds a separate entry of the source.

Data set [1] relates to α-SMA. Kind of data set: Liver gene expression by quantitative Real Time PCR: α-SMA. To be noted: liver mRNA, normalized to β-actin; CCl4 group 65.51 ± 22.24. Format: in vivo, mice. As for the experimental part: The effect of administration of compound 34 (GED) and the specific CB2 agonist (JWH-133) was evaluated on the level of gene expression of cytokines (IL-1β, TNF-α) and genes involved in the mechanism of fibrosis by quantitative Real Time PCR.
Total RNA was isolated from livers using Rneasy kit (Macherey Nagel, Hoerdt, France) according to the manufacturer's instructions. RNA quantification was performed using spectrophotometry. After treatment at 37° C. for 30 min with 20-50 units of RNase-free DNase I (Roche Diagnostics Corporation, Indianapolis, IN, USA), oligo-dT primers (Roche Diagnostics Corporation, Indianapolis, USA) were used to synthesize single-stranded cDNA. mRNAs were quantified using SYBR green Master Mix (Applera, Courtaboeuf, France) with murine specific oligonucleotides (see Table 2) in a GeneAmp Abiprism 7000 (Applera, Courtaboeuf, France). In each assay, calibrated and no-template controls were included. Each sample was run in triplicate. SYBR green dye intensity was analyzed using the Abiprism 7000 SDS software (Applera, Courtaboeuf, France). All results were normalized to the unaffected housekeeping gene β-actin.

Data set [2] deals with liver biochemical parameters in the serum of mice (AST, ALT, Gamma GT, Alkaline phosphatase). Kind of data set: Liver blood enzyme analysis in serum. Type of data set: in vivo. To be noted: 4 days after the last administration of CCl4. As for the experimental part:
The effect of oral administration of compound 34 (GED) and the specific CB2 agonist (JWH-133) was evaluated on different liver biochemical parameters in the serum of mice: hepatic enzymes ([…]), Gamma GT and the Alkaline phosphatase.

In data set [3] the test system is main markers of fibrosis (Collagen I-III, CTGF, SMAD 2/3, PDGF, α-SMA, and TGF-β1). Kind of data set: DSS intestinal fibrosis study: immunohistochemical analysis of colon. Format: in vivo, mice. As to the method: For the immunohistochemical analysis, tissue specimens from the colon were fixed in fresh 4% paraformaldehyde (PFA)/PBS solution for 3 h at room temperature, dehydrated in a graded ethanol series, and embedded in low-temperature-fusion paraffin. 3-μm-thick sections were incubated in methanol for 40 min and then in 3% hydrogen peroxide for 5 min. Samples were incubated overnight with specific antibodies against collagen types I-III (Abcam), connective tissue growth factor (CTGF) (Abcam), Platelet Derived Growth factor (PDGF), SMAD2/3, the main markers of fibrosis. The samples were washed for 5 min with PBS and incubated with streptavidin-biotin-peroxidase conjugated secondary antibody (Dako LSAB Corporation, cod K0675, Dako-Cytomation, Milano). After a wash in PBS for 10 min the sections were subjected to incubation with 3,3-diaminobenzidine-tetrahydrochloride for 1-3 min.
The specificity of immune reaction was performed omitting the primary antibodies Finally the samples were stained with hematoxylin of Mayer and observed under the Olympus BX51 Light Microscope (Olympus, Optical Co. Ltd., Tokyo, Japan).

Data set [4] concerns α-SMA. Kind of data set: DSS intestinal fibrosis study: Western blot of colon, α-SMA. Format: in vivo, mice. The note with it: whole colon, OD normalized with GAPDH, expressed as percentage of control groups; DSS 125.4 ± 19.45. As for the experimental part: (§1) For the Western blot analysis, 0.5 cm of frozen colonic samples were homogenized in RIPA Buffer containing 50 mM Tris HCl pH 7.6, 150 mM NaCl, 1.5 mM MgCl2, 5 mM EDTA, 1% Triton-X and 10% Glycerol, supplemented with 100 mM Sodium Fluoride (NaF), 2 mM Sodium Orthovanadate (Na3VO4), 10 mM Sodium Pyrophosphate (NaPPi), 1 mM phenylmethanesulphone (PMSF) and a classical protease-inhibitor cocktail containing 10 μg/mL Leupeptin and Aprotinin.
(§2) For each sample, 30 μg of protein was separated by PAGE and electroblotted. Nitrocellulose membranes (100% pure) were incubated (according with a specific protocol for each antibody) with primary antibodies directed against CTGF, Collagen-I and GAPDH (purchased from Abcam, Cambridge, UK; 1:1000 for 2 h at RT), diluted in 5% non-fat milk in 0.1% TBS-t. […] Optical density of target bands was determined using a computer-assisted densitometer and the ImageJ public domain software (W. S., Rasband, ImageJ, U. S. National Institutes of Health, Bethesda, MD; http://rsb.info.nih.gov/ij/, 1997-2011). Tissue levels were expressed as units of Optical Density (OD) per quantity of total proteins, normalized with internal control GAPDH and the results were expressed as percentage of control groups.

The subject of a further data set is Collagen I. In words: DSS intestinal fibrosis study: Western blot of colon, Collagen I. Format: in vivo, mice. To be noted: whole colon, OD normalized with GAPDH, expressed as percentage of control groups; DSS 284.4 ± 63.86; listed as GED. As for the experimental part:
as §1, §2

A further data set deals with Collagen I-III. In words: DSS chronic colitis (Ex. 7): Western blot, Collagen I-III. Format: in vivo, mice. To be noted: percentage of the mean of control group, normalized with GAPDH; DSS 284.4%±63.8%. As to the method: 0.5 cm of frozen colonic samples were cut and mechanically homogenized in RIPA Buffer containing 50 mMTrisHCl pH 7.6, 150 mMNaCl, 1.5 mM MgCl2, 5 mM EDTA, 1% Triton-X and 10% Glycerol, supplemented with 100 mM Sodium Fluoride (NaF), 2 mM Sodium Orthovanadate (Na3VO4), 10 mM Sodium Pyrophosphate (NaPPi), 1 mMphenylmethanesulphone (PMSF) and a classical protease-inhibitor cocktail containing 10 μg/mL Leupeptin and Aprotinin.
30 μg of protein for each sample were separated by PAGE and electroblotted. 100% pure Nitrocellulose membranes were incubated (according with a specific protocol for each antibody) with primary antibodies directed against TGF-β1, CTGF, α-SMA, Collagen-I and GAPDH (purchased from Abcam, Cambridge, UK; 1:1000 for 2 h at RT), and IL-13 (purchased from Antibodies online; 1:1000 for 2 h at RT) diluted in 5% non fat-milk in 0.1% TBS-t. […] Optical density of target bands was determined using a computer-assisted densitometer and the ImageJ public domain software (W. S., Rasband, ImageJ, U. S. National Institutes of Health, Bethesda, MD; http://rsb.info.nih.gov/ij/, 1997-2011). Tissue levels were expressed as units of Optical Density (OD) per quantity of total proteins, normalizing with internal control GAPDH and the results were expressed as percentage of control groups.

In the data set on α-SMA [1], `COC(Cc1ccc(N)cc1)C(=O)O` (racemic) [Compound 34, (±)-2-methoxy-3-(4′-aminophenyl) propionic acid] had a α-SMA of 42.81 ± 14.81. The “enhancement of blood liver enzymes (AST, ALT, Alk P) / liver toxicity” value in data set [2] was “not associated with any enhancement of blood liver enzymes; also recorded: without liver toxicity”. The “main markers of fibrosis (Collagen I-III, CTGF, SMAD 2/3, PDGF, α-SMA, TGF-β1) by IHC” value in data set [3] (colon of DSS mice vs colitic mice receiving vehicle, FIG. 9A-9E) was “a reduction of the main markers of fibrosis”. In data set [3] (colon of DSS mice, FIG. 9A), the “collagen staining (immunohistochemical analysis)” value is reported as “decrease in the collagen staining”. Besides, the “α-SMA (Western blot)” value with α-SMA [4] is 97.88 ± 15.66. Also, in the data set on Collagen I, the “Collagen I (Western blot)” value was found to be 90.75±19.91. Moreover, the “Collagen I-III expression level (Western blot)” value in the data set on Collagen I-III is 90.75%±19.9%.
